Patent publication US4778789A, “Piperazinecarboxamides having a phenoxyalkyl or thiophenoxyalkyl side chain” (priority 1985, dated 1988)
Structures can show the parent of a compound that is named as a salt.

Tested on: isolation induced aggressive behaviour (male NMRI mice)
Test: Isolation induced aggressive behaviour test
Assay type: in vivo
Details: Mus musculus, sc, 0.5 hour after drug administration, read-out: ED50 (dose inhibiting aggressive behaviour among 50 percent of the pairs)
Excerpt: This type of aggression is interesting because it is known that this kind of emotional behaviour might be located in limbic structures in the brain (MacLean, P. D., Psychosom. Med. 11, 338 (1949)).
Every week male NMRI mice, weighing 20-22 g, were isolated in Makrolon cages for three weeks with diet and water ad libitum. A piece of cardboard was placed between the cages to prevent visual contact.
To test aggressiveness the mice were paired in a neutral area, a beaker (14 cm high and diameter 14 cm). A pair is considered aggressive if both the animals show clear signs of fighting within 5 minutes. This fighting is characterized by biting and vocalization. A soon as fighting is seen, the mice are separated and brought to their home cage (every second mouse is marked). […] Animals showing no aggression are discarded.
The test substance is administered s.c. (0.2-0.4 ml/20 g). The mice are paired 0.5 hour after the injection for trials of 5 minutes' duration.
The ED50 -value (mg/kg) reported is the dose inhibiting aggressive behaviour among 50 percent of the pairs 0.5 hour after drug administration.

Compound | ED50
CCNC(=O)N1CCN(CCCOc2ccc(F)cc2)CC1 [1:3, 4-/3-(p-fluorophenoxy)proyl/-N-ethyl-1-piperazinecarboxamide hydrochloride] | 5 mg/kg
CSc1ccc2c(c1)N(CCC1CCCCN1C)c1ccccc1S2 (centres unmarked) [Thioridazine] | 5 mg/kg
